Results reported in US20050154537A1, “Methods, program products, and systems for single and multi-agent dosing and other related methods” (priority 2003, published 2005).

System: Hemoglobin (Hgb)
Experiment: Lookup table: marker validity (nadir) window, Hemoglobin (Hgb)
Format: in vivo
Conditions: days elapsed between current dose and marker
Description: A lookup table has been constructed (see above example), in the form of a table, to represent the relationship of each trial Agent and its qualified Clinical Markers. This table includes information regarding the Maximum Dose and the Inverse Marker Applicability for each Agent. The gray cells on the Cycle Dose Modifier indicate these values.
The table also includes information regarding the nadir of applicability for each Agent—Marker combination. The range, in days and indicated as the Lower Limit and Upper limit, has been determined by calculating a percentage (20%) above and below the true nadir value when only a single value is known. Otherwise, the upper and lower nadir values are used. […] The values of Upper and Lower limits is shown as a property of the Association between Markers and Agents. The Relevancy of a Marker can be computed using the lookup table by comparing the number of days elapsed between the date of the application of the current dose and the date on which the Marker was taken to the upper and lower values for that Agent Marker Association. If the elapsed days are greater than or equal to the lower limit and less than or equal to the upper limit, then the calculations provided by the Cycle Dose Modifier are said to be relevant and thereby applicable as indicated in the yellow Marker Validity cell. The Relevancy of Cycle Dose Modifier Calculations for Agent 1 is based on the Validity of Marker for Agent 1 calculated by: =IF(and((($B13−B6)>=VLOOKUP(B$3,Validity!$A$3:$K$8,10)),((B$13−B6)<=VLOOKUP(B$3,Validity!$A$3:$K$8,11))),“valid”,“invalid”)

Structure (SMILES): CC(=O)O[C@H]1C(=O)[C@@]2(C)[C@H]([C@H](OC(=O)c3ccccc3)[C@]3(O)C[C@H](OC(=O)[C@H](O)[C@@H](NC(=O)c4ccccc4)c4ccccc4)C(C)=C1C3(C)C)[C@]1(OC(C)=O)CO[C@@H]1C[C@@H]2O [Taxol]
- Hemoglobin (Hgb) LL (lower limit of nadir range): 8 days
- Hemoglobin (Hgb) UL (upper limit of nadir range): 11 days
